These results are taken from patent publication US20200368234A1, “PHOTORECEPTOR GENE MODULATOR PHOTOREGULIN 3 FOR TREATMENT OF RETINAL DISEASE” (University of Washington, priority 2017, published 2020).

Entries after “also recorded” stand apart in the source; their conditions may differ.

One data set deals with Rhodopsin. The data set can be described thus: Rhodopsin protein expression (immunofluorescence assay) in dissociated retinal cell cultures. In kind it is cell-based. The following applies: P5 mouse dissociated retinal cultures, 2 days treatment, vs DMSO and PR1. The text has this: In order to identify compounds that may target Nr2e3 a cheminformatic strategy was used to screen hit compounds previously identified to interact with recombinant Nr2e3 in transfected CHO-S cells in a luciferase-based assay (PubChem Assay IDs: 602229, 624378, 624394, and 651849). As a secondary screen for initial hits, dissociated primary retinal cell cultures were used and assayed Rhodopsin, because it is a well-defined target of Nr2e3 signaling and is expressed at high levels exclusively in rod photoreceptors. Retina were dissociated from postnatal day 5 (P5) mice and cultured them in media containing the small molecules. After treatment for 2 days, the cells were collected for qPCR analysis and quantified Rhodopsin expression. […] This finding was confirmed with an immunofluorescence assay to examine Rhodopsin protein expression in dissociated retinal cultures from P5 mice.
Retinas were dissected from postnatal day 5 (P5) mice and dissociated by treatment with 0.5% Trypsin diluted in calcium- and magnesium-free HBSS from 10 minutes at 37° C. Trypsin was inactivated by adding an equal volume of FBS and cells were pelleted by centrifugation at 4° C. and resuspended in media (Neurobasal-A containing 1% FBS, 1% N2, 1% B27, 1% Pen/Strep, and 0.5% L-glutamine). For qPCR, cells were plated into 24-well tissue culture plates at a density of 1 retina/well (see qPCR section below). […]

Another data set relates to Rho^P23H mice. Put plainly: ERG visual function in Rho^P23H mice at P21. It is filed as in vivo, mouse. Conditions: 10 mg/kg PR3, vs littermate DMSO controls. The method, then:
FIG. 4A compares scotopic b-wave amplitudes from P21 Rhodopsin^P23H mice treated with 10 mg/kg PR3 or DMSO vehicle (n=4-8, *p<0.05, t-test).
FIG. 4D compares photopic b-wave amplitudes from P21 Rhodopsin^P23H mice treated with 10 mg/kg PR3 or DMSO vehicle (n=4-8, *p<0.05, t-test).
To determine whether photoreceptor degeneration can be prevented, Rho^P23H mice were treated with PR3 or vehicle from P12-P14 until P21, during the period of rod photoreceptor death (FIG. 3A). At P21, visual function was assessed with ERGs and euthanized the mice for histological and qPCR analyses. At P21, control Rho^P23H mice had only 2-3 rows of photoreceptors remaining in their ONL (FIGS. 3B and 3C). Rods were sparse and there were few remaining cones (S Opsin+ and Cone Arrestin+ photoreceptors). Control Rho^P23H mice had minimal scotopic and photopic b-wave amplitudes by ERG analysis (FIGS. 4A, 4B, 4D, and 4E). […] The surviving cones in the PR3-treated retinas were more elongated and healthier than in the DMSO control retinas.
Photoregulin3 was identified by searching previous small molecule screens with SciFinder and PubChem for Nr2e3 interacting molecules. It was initially obtained from ChemDiv and then synthesized and purified in large quantities in the lab after initial screening. For in vivo experiments, mice were injected intraperitoneally with PR3 dissolved in DMSO at 10 mg/kg. […]

For data set [1], the system named is S Opsin+ cells in the ventral retina. The data set can be described thus: S Opsin+ cell count in intact retinal explant cultures. It is filed as cell-based. The following applies: P11 mouse intact retina explants, 0.3 μM PR3, 3 DIV, vs DMSO. An excerpt: Scale bar represents 50 μm. E. PR3-treated retinas had more S Opsin+ cells per 100 μm×100 μm field in the ventral retina compared to DMSO-treated retinas (n=3, *p<0.05, Student's t-test).
FIG. 1E is a graph quantifying the effects of PR3 on S-opsin expression; treatment conditions were the same as those in FIG. 1D. S-opsin+ cones are predominantly present in the ventral retina of mice.
Mutations in Nr2e3 result in an increased number of S Opsin+ photoreceptors as well as a reduction in rod gene expression. To determine if PR3 treatment also affects cone gene expression, intact retinas were explanted from P11 wild type mice in media containing DMSO or PR3 for 3 days. Intact retinas were used for this experiment to assess changes in dorsal and ventral retina independently. After fixation and whole mount immunostaining, S Opsin+ cells were counted in the ventral retina.
Intact retinas without RPE from P11 C57Bl/6 mice were explanted on 0.4 μm pore tissue culture inserts in media (Neurobasal-A containing 1% FBS, 1% N2, 1% B27, 1% Pen/Strep, and 0.5% L-Glutamine) containing DMSO or 0.3 μM Photoregulin3. Full media changes were performed every other day. […] Cells were counted from single plane confocal images taken at fixed settings.

With `COc1cc2nc(CN3CC=C(c4ccccc4)CC3)nc(O)c2cc1OC` [PR3], in the data set with Rhodopsin, the Rhodopsin protein expression entry was “reduced expression of Rhodopsin compared to DMSO vehicle and PR1”. Also, in the data set with Rho^P23H mice, the “photopic b-wave amplitudes (ERG)” value was “significantly elevated” and the “scotopic b-wave amplitudes (ERG)” value was “significantly elevated”. For the same compound, in data set [1], the “S Opsin+ cells per 100 μm×100 μm field in the ventral retina” value is “significantly more S Opsin+ cells per 100 μm×100 μm field in the ventral retina compared to DMSO-treated retinas; also recorded: increase in the number S Opsin+ cells in the ventral retina”.
